These results are taken from article PMC12419922, “Myristoylated Cathelicidin-DM Fused With ANG1-7: A Novel Self-Assembling Antimicrobial Peptide for the Treatment and Mechanism of Diabetic Infected Wounds” (Journal of Diabetes Research, 2025).

Where no end group is shown, it is not given here. The star is where a group is joined. Myristoyl = CCCCCCCCCCCCCC(=O)*

A short description of series [1]: TEM of self-assembled structures. In kind it is physicochemical. The following applies: 32 μg/mL, deionized water, 1.5% PTA negative stain. How it is done:
The self-assembly morphology of peptide amphiphiles in water was observed using TEM. Each sample was mounted on a 300-mesh copper-coated carbon grid and then negatively stained with a 1.5% phosphotungstic acid solution (1.5% PTA). Before imaging, all samples were air-dried for approximately 10 min. Finally, the samples were characterized under an acceleration voltage of 80 kV.

In series [2] the test system is HUVECs. Put plainly: Mitochondrial membrane potential, JC-1. Particulars: HG + LPS, 20 μg/mL, p < 0.0001. In kind it is cell-based, human. On the procedure:
JC-1 is a widely used and ideal fluorescent probe for detecting MMP. When the MMP is high, JC-1 accumulates in the matrix of the mitochondria, forming J-aggregates that emit red fluorescence. When the MMP is low, JC-1 cannot accumulate in the mitochondrial matrix, remaining as a monomer that emits green fluorescence. HUVECs were cultured in well plates containing DMEM at a density of 1 × 10^6 cells/well. Following the indicated treatments, the slides were washed three times with PBS and the cells were incubated with 1 mg/l JC-1 at 37°C for 30 min in the incubator, washed briefly three times with PBS. The fluorescence was measured over the entire field of vision using a fluorescent microscope connected to an inverted fluorescence microscope (ThermoFish EVOS, United States). The experiment was repeated three times.

For series [3], the system named is human skin fibroblasts (HSFs). Particulars: 1.56 μg/mL (lowest concentration), 24 h, CCK8. On the procedure: (§1) Human keratinocyte cells (HaCaTs) and human skin fibroblasts (HSFs) were seeded in 96-well plates at a density of 5000 cells per well. After overnight culture, different concentrations of AMP MYR-DM-ANG1-7 were added to the cells, and then, the cells were cultured for 24 h. Untreated cells were supplemented with fresh culture medium as the control group. Subsequently, 10% by volume of CCK8 solution (5 mg/mL) was added to each well.
(§2) After incubation for 1 h, the absorbance in each well was measured at 450 nm using an M200 full-band microplate reader (Infinite M200 PRO, Switzerland). Finally, the cell viability was calculated relative to the control groups.

Series [4] deals with Human keratinocyte cells (HaCaTs). Particulars: 50 μg/mL (highest concentration), 24 h, CCK8. On the procedure: as §1, §2
The test system of series [5] is HUVECs. Put plainly: Reactive oxygen species, DCFH-DA flow cytometry. The following applies: 20 μg/mL, compared with the HG + LPS group, p < 0.01. The format is cell-based, human. On the procedure: To evaluate the antioxidant activity of MYR-DM-ANG1-7, HUVECs were cultured in DMEM supplemented with 10% FBS at 37°C and 5% CO2. After serum starvation for 24 h, the cells were divided into […] experimental groups: normal control group, high glucose + LPS, high glucose + DM group, and high glucose + MYR-DM-ANG1-7. After drug treatment, the cells were washed three times with ice-cold PBS and incubated with 10 μM DCFH-DA probe in serum-free medium at 37°C in the dark for 20 min. After removing the probe with PBS, the fluorescence intensity of 10,000 live cells was immediately measured by flow cytometry (excitation: 488 nm and emission: 530/30 nm). The data were expressed as the geometric mean fluorescence intensity (MFI) of each sample.
In general terms: Flow cytometry measures light scatter and fluorescence of single cells or particles in a stream.

Series [6] concerns HUVECs. Put plainly: NO secretion, Griess reaction. The format is cell-based, human. The following applies: HG + LPS (HG + LPS 0.5 times the original level), n = 3. How it is done:
NO levels were determined using the Griess reaction. Briefly, 100 μL of cell culture supernatant was mixed with an equal volume of Griess reagent and incubated at room temperature in the dark for 30 min. The absorbance of the reaction mixture was measured at 540 nm using a microplate reader. Sodium nitrite (NaNO2) was used as a standard to generate a calibration curve, and the NO concentration in the samples was calculated accordingly. All experiments were independently performed in triplicate to ensure data reliability and reproducibility.

Series [7] deals with S. aureus (ATCC 25923) infected diabetic wound. Description: Diabetic mouse S. aureus-infected full-thickness skin wound model. Particulars: for wound healing rate: 200 μL subcutaneously for 3 days, n = 4. On the procedure: BALB/c male mice are from the Experimental Animal Center of Air Force Military Medical University. One group was fed a normal diet, and the other five groups were fed a high-fat diet for 4 weeks and then injected with 35 mg/kg streptozotocin (STZ, 35 mg/kg, Sigma) intraperitoneally for 3 days. […] After intraperitoneal injection of pentobarbital sodium (1%, […]), the dorsal hair of each animal was shaved off, and a circular full-thickness skin wound was created on the back using a 10-mm sterile mouse punch. S. aureus (ATCC 25923) was used to infect the wound site of mice, and a full-thickness wound infection model of mice was established. S. aureus was first resuscitated by operation in a biological ultra-clean table. A single colony was picked and incubated in LB medium at 37°C and 200 rpm. The concentration of the above S. aureus solution was adjusted to 1 × 10^8 CFU/mL to infect the wound of mice. Then, 24 h after S. aureus infection, three drugs, DM (20 μg/mL), ANG1-7 (20 μg/mL), and MYR-DM-ANG1-7 (20 μg/mL), were dissolved in PBS buffer, and 200 μL was injected subcutaneously for 3 days. After drug injection, the wound pus was diluted and coated with plate culture to observe the colony situation. The gross specimen imaging system (GF-7A, China) was used to record the wounds of mice on the same day and every other day after the formation of the wounds. The rubber ring with adhesive backing was used to fix the wound and prevent it from shrinking. ImageJ analysis software (NIH, Bethesda, MD, United States) was used to calculate and analyze the wound area. After 0, 3, 7, 10, and 14 days, the size of the infected wound was evaluated by rubber ring. The wound closure was measured as follows: the wound healing rate (%) = [W0 − Wn]/W0 × 100%, where W0 and Wn represent the wound area on the 0th and nth days, respectively (n = 4).
On the 14th day, the skin tissue was fixed in 4% paraformaldehyde solution, dehydrated, embedded in paraffin, sliced, and stained with hematoxylin–eosin (HE) and Masson. Skin tissue sections on Day 7 were immunofluorescently stained using rabbit anti-mouse CD31 (Cell Signaling Technology) and α-SMA (Cell Signaling Technology), and all stained sections were observed under the slide scanner (Aperio AT 2; Leica Biosystems, Germany).

The subject of series [8] is HUVECs. Put plainly: ELISA of IL-6 and TNF-α in culture supernatant. In kind it is cell-based, human. The following applies: HG + LPS 24 h. On the procedure: The HUVECs were seeded at 1 × 10^4 cells/well and cultured in 96-well plates. Following the indicated treatments, the levels of IL-6 and TNF-α in culture media were analyzed using ELISA according to the method of the kit. The experiments were repeated three times.

As for “Myristoyl-SSRRKPCKGWLCKLKLRGGYTLIGSATNLNRPTYVRAGGGDRVYIHP (cysteines drawn unpaired) [MYR-DM-ANG1-7]”, the “particle size of micelles” value in series [1] is listed as 22.38 ± 1.63 nm. In addition, the “mitochondrial membrane potential (JC-1)” value in series [2] was “increase”. Further, the “cell survival rate, HSF” value in series [3] is given as 95.16%. For the same substance, in series [4], the “cell survival rate, HaCaT” value came to 92.4%. In series [5], the “reduction of intracellular reactive oxygen species level” value is “approximately 32%”. The “NO secretion in cell supernatant, increases to” value in series [6] was 1.63 times. Also, the wound healing rate worked out at 72.77% in series [7] (7th day, 20 μg/mL in PBS); 85.22% in series [7] (10th day (diabetic control 40.26%), 20 μg/mL); 95.66% in series [7] (14th day (diabetic control 52.34%), 20 μg/mL). In addition, the “pathological changes in the liver and kidneys” value in series [7] (14th day, H&E) is listed as “no evidence of organ damage or pathological changes”. The “blood vessels, CD31 immunofluorescence” value in series [7] (Day 7, compared with the diabetes infection group, p < 0.05) is “more blood vessels”. For the same substance, the “epidermis of wound tissue (HE staining)” value in series [7] (Day 14, compared with the diabetes infection group) was “became thinner”. Moreover, in series [7] (Day 14, p < 0.0001), the “collagen deposition area (Masson staining)” value is listed as “became larger”. Moreover, the “fluorescence intensity of α-SMA” value in series [7] (seventh day, vs the diabetes infection group, p < 0.01) was “significantly higher”. In addition, in series [7] (wound pus plated on LB agar after 24 h of treatment, p < 0.0001), the “number of bacteria in the wound” value was “decreased”. Also, in series [8], the TNF-α level result was “alleviate the decrease”.
